Assay: Compound was evaluated for half life at 37 degree Centigrade

half-life | SMILES
0.5 min | CCCCC[C@H](O)/C=C/C1OC2CC(O2)[C@@H]1C/C=C\CCCC(=O)O (some centres not stated)
3 min | CCCCC[C@H](O)/C=C/[C@@H]1[C@H]2C/C(=C/CCCC(=O)O)O[C@H]2C[C@H]1O [EPOPROSTENOL]

Source: ChEMBL document CHEMBL1121444, “Biological significance and therapeutic potential of prostacyclin” (J Med Chem, 1980)
